Laboratory results taken from patent US9161944B2, “Method for preventing cancer metastasis” (INSERM (INSTITUT NATIONAL DE LA SANTE ET DE LA SANTE ET DE …, priority 2010, dated 2015).

What was measured:
[1] = target: SK3/KCa2.3 channel (Homo sapiens, UniProt Q9UGI6); assay: Whole-cell patch clamp, apamin-sensitive current in MDA-MB-435s; type: cell-based; design: effect of JPH1701 on the SK3 activity in MDA-MB-435s cells using patch clamp technique; endogenous in cells; host or cells: MDA-MB-435s wild type
Description: FIG. 7: Effects of a 24 hours application of JPH1701 at 1 μM on whole cell current in MDA-MB-435s Wild Type (WT). FIG. 7A) Illustrations of currents recorded on MDA-MD-435s. On the top, current were recorded on MDA-MB-435s in control condition. At the bottom, current were representative of a cell which was treated with JPH1701 1 μM during 24 hours. FIG. 7B) Effects of JPH1701 on apamin-sensitive currents. Cells were incubated with JHP1701 at 1 μM during 24 hours then currents were measured in absence or with apamin, a specific blocker of the SK3/KCa2.3 channel. Histograms show the amplitude of currents inhibited by apamin. After JPH1701 treatment apamin-sensitive current were abolished. […]
Briefly, experiments were conducted using Axopatch 200B patch-clamp amplifier (Axon Instrument) and data, digitized with 1322-A Digidata converter (Axon Instrument), were stored on a computer using Clampex of pClamp 9.2 software (Axon Instru-ment). The patch-clamp data was analyzed using both Clampfit 9.2 and Origin 7.0 software (Microcal Inc., Northampton, Mass., USA).
The pipette solution for the whole-cell recordings contained (in mM): K-glutamate 125, KCl 20, MgCl2 1, Mg-ATP 1, HEPES 10, and pH was adjusted to 7.2 with KOH and various concentrations of CaCl2 and EGTA were added to obtain calculated pCa=7 (0.37 mM CaCl2 and 10 mM EGTA) or pCa=6.4 (0.7 mM CaCl2 and 1 mM EGTA). […]

[2] = target: T1, SK1 (Homo sapiens, UniProt Q92952); assay: Whole-cell K+ currents in HEK293 cells expressing recombinant SK1; type: cell-based; details: 10 μM, FIG. 9B
T1 construct: expressed in transfected cells; host or cells: HEK293
Description: FIG. 9. Selectivity effect of JPH1701 on SKCa subtype and on IKCa channels. FIG. 9A) Example of whole-cell K^+ currents recorded in HEK293 cells expressing recombinants SK1, SK2, SK3 and IKCa channels before and after application of 10 μM JPH1701 (upper graphs: SK1 and SK2 respectively, bottom graphs: SK3 and IKCa respectively). Currents were generated by ramp protocol from −100 mV to +60 mV in 500 ms from a constant holding of 0 mV and with a pCa 6. FIG. 9B) Histograms showing the effect of 10 μM JPH1701 on SKCa (SK1, SK2, SK3) and IKCa current amplitudes recorded at 0 mV. […] For each channel (SK1, SK2, SK3 and IKCa) the left column (pale grey) represents the control result and the right column (dark grey) represents the result after JPH1701 application.
The selectivity of JPH1701 toward the others members of the SKCa/IKCa channels was tested. […] The experimental protocol was similar to the one used in FIG. 8. JPH1701 was tested for membrane potential from +60 mV to −100 mV on 500 msec.

[3] = target: PhosphoLipase C (PLC); assay: PhosphoLipase C activity; type: biochemical; details: FIG. 11D
Description: FIG. 11: Effects of JPH1701 on PAF receptor, PLC and PKCs activities. FIG. 11A) Histogram showing the percentage of control specific binding of 3H-C16-PAF to recombinant PAF receptor obtained from membrane homogenates of CHO cells by 0.3 and 2 μM edelfosine and by 0.3 and 2 μM JPH1701. FIG. 11B) Histogram showing the percentage of control agonist response (% effect i.e: increase of intracellular calcium concentration) of 0.3 and 2 μM edelfosine and JPH1701 on PAF receptor normalized to the response induced by 100 nM C16-PAF. […] FIG. 11C-D) Dose responses curves showing the effect of JPH1701 on PKCs (FIG. 11C, PKCs are: alpha, Beta 1, Beta 2, Gamma, Delta, Epsilon, Zeta, Eta, Theta, Iota) and PhosphoLipase C (PLC) activities (FIG. 11D).

[4] = test system: MDA-MB-435s (SK3+); assay: Cell migration / 2D motility assay (transwell inserts, wound healing); type: cell-based, human
Source text: Alternatively, the cell migration inhibitory activity of a compound of formula (I) may be assessed by performing a Wound Healing assay that is disclosed in the examples herein and for which the one skilled in the art may also refer to the article of Rodriguez et al. (2005, Methods Biol Mol, Vol. 294: 23-29). The wound-healing assay is simple, inexpensive, and one of the earliest developed methods to study directional cell migration in vitro. This method mimics cell migration during wound healing in vivo. The basic steps involve creating a “wound” in a cell monolayer, capturing the images at the beginning and at regular intervals during cell migration to close the wound, and comparing the images to quantify the migration rate of the cells. It is particularly suitable for studies on the effects of cell-matrix and cell-cell interactions on cell migration. Cells are seeded in culture dishes and grown until confluence in DMEM supplemented with 10% foetal calf serum. The monolayer is then scratched with a sterile yellow pipette tip. Then, migration of cells to the cleared area is inspected under a microscope. Pictures are taken directly at the time of scratching and after 24 h, so as to determine the ability of the tested cells to migrate.
Wound healing assay: Cells were seeded in culture dishes and grown until confluence in DMEM supplemented with 10% foetal calf serum. The monolayer was scratched with a sterile yellow pipette tip. The migration of cells to the cleared area was inspected under a microscope. Pictures were taken directly at the time of scratching and after 24 h.
At least three independent experiments were each performed in triplicate.

Chain of SK3/KCa2.3 channel (Q9UGI6 whole entry): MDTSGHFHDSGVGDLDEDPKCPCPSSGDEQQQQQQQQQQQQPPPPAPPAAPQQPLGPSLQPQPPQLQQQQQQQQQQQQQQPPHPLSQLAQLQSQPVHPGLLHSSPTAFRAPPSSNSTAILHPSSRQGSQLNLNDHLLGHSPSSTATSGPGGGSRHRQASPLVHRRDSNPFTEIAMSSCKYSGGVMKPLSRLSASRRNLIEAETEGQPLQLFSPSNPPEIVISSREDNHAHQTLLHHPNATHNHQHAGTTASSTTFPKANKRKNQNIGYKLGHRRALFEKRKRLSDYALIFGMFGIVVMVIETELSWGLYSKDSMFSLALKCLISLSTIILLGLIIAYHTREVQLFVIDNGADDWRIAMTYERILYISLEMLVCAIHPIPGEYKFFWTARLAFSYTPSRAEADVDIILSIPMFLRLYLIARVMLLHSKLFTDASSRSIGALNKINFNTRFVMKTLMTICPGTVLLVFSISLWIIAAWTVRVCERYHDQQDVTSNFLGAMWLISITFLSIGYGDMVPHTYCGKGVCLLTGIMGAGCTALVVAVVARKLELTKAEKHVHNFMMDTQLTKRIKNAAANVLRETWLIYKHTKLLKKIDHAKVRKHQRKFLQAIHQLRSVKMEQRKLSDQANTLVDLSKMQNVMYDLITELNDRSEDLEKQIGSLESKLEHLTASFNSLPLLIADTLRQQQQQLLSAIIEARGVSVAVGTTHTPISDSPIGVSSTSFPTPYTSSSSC
T1 sequence (Q92952 whole entry): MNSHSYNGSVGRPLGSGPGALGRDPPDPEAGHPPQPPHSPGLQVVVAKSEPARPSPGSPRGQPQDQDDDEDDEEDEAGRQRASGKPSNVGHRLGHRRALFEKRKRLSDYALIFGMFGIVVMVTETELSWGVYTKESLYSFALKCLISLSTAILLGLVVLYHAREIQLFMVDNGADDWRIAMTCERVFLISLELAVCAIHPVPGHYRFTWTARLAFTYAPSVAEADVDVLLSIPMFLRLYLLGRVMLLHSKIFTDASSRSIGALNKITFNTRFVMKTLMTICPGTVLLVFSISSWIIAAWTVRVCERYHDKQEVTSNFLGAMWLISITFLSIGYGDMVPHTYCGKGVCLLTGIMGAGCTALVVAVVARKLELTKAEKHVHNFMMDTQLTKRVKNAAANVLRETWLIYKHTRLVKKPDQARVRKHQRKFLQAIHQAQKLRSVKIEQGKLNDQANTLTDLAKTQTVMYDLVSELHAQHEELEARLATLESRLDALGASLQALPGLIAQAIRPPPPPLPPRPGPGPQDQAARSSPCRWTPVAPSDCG

hexadecyloxy-2-O-methyl-sn-glycerol-lactose [JPH1701]
Apamin-sensitive current after treatment ([1]; 1 μM for 24 h, FIG. 7B): totally abolished
Apamin-sensitive current in MDA-MB-435s ([1]; wild-type cells, residual current abolished by apamin): 0.071 ± 0.215 pA/pF
Effect on SK1 current amplitude at 0 mV [2]: significantly reduced
IC50 [3]: 7 µM
Effect on motility of cells with shRNA random (SK3+) compared with wild type ([4]; MDA-MB-435s shRD, FIG. 6E): same inhibition effect
Concentration from which cell migration is inhibited ([4]; MDA-MB-435s wild type, FIG. 6A): ≥ 10 nM
Concentration of maximal effect on cell migration ([4]; MDA-MB-435s wild type, FIG. 6A): around 1 μM
Cell Migration inhibition of MDA-MB-435s (SK3+), Inhibitory effect ([4]; Table 1, concentration 300 nM): 50%
Migration (% of inhibition) ([4]; Table 2, concentration 300 nM): 50%
Effect on cell migration ([4]; summary of table 2): even more effective
